# Read-outs that look alike come from different tables or passages of the source.
# Target: T1, BRM (Homo sapiens, UniProt P51531)
# T1 construct: In-Cell Western Screen of BRM Degradation in SW1573 Cells; endogenous in cells; host or cells: SW1573
# Assay: In-cell Western screen of BRM degradation in SW1573 cells (Dmax and DC50)
# Assay type: cell-based
# Summary of the method: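 Overnight compound treatment (18-20 h, final DMSO 0.1%) of SW1573 cells in DMEM with 10% FBS precedes fixation and in-cell Western staining with 800/680 nm dye-labelled secondaries. Plate images give DC50 and maximal degradation.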
# [1] = SW1573, % degraded, when tested at the top concentration of between 0.3 and 10 μM, read-out: BRM Dmax (%)
# [2] = target protein degradation, read-out: BRM DC50
# [3] = BRM degradation, SW1573 cells, Table 2D, read-out: *DC50
# [4] = BRM degradation, SW1573 cells, read-out: DC50
# [5] = BRM degradation, SW1573 cells, read-out: Dmax (% degraded)
# T1 sequence (P51531 whole entry): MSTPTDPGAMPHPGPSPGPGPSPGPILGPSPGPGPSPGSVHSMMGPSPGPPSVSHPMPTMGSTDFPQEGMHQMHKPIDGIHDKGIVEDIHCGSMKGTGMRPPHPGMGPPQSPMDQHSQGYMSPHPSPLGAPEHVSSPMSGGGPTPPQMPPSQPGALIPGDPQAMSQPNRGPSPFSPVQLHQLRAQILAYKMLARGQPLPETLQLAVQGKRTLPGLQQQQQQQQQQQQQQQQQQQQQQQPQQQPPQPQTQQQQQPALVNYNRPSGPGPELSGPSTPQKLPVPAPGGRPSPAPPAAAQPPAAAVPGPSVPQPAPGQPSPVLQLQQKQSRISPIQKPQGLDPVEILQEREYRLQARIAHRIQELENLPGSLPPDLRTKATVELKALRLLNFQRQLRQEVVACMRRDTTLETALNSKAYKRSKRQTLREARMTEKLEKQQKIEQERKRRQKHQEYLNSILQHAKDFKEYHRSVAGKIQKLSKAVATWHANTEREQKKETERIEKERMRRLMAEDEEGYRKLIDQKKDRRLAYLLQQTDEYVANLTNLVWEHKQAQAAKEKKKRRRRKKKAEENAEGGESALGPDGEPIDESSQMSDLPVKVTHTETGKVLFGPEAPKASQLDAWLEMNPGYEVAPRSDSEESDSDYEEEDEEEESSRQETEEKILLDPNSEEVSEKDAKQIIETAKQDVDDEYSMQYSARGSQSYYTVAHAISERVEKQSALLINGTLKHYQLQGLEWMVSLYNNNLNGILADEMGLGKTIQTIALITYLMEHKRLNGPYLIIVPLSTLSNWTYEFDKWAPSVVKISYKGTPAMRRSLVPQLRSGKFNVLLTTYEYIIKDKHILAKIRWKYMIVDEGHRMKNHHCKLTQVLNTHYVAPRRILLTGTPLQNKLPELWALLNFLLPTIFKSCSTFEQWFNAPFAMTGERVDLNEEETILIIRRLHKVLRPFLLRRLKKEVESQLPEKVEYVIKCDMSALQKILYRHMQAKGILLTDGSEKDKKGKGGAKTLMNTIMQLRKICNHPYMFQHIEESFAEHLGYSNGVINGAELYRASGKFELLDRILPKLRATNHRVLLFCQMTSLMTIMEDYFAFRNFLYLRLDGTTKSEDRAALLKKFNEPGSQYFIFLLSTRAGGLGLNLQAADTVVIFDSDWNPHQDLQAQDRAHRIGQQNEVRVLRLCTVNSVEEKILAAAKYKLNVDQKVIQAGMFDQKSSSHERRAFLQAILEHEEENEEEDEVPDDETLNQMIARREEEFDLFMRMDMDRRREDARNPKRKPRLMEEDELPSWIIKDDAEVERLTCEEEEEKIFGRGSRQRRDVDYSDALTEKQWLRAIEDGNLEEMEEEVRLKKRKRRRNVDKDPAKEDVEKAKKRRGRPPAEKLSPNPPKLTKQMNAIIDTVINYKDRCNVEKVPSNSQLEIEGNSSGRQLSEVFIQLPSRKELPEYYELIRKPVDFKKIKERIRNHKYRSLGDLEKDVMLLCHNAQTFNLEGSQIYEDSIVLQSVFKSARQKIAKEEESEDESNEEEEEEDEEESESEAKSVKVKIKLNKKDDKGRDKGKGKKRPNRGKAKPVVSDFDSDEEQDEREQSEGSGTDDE
SMILES,Dmax [1] [%],DC50 [2] [µM],DC50 [4] [µM],also measured
"Cc1ncsc1-c1ccc([C@H](C)NC(=O)[C@@H]2C[C@@H](O)CN2C(=O)[C@H](c2cc(OCCCCN3CCN(CCCCOc4cc(N5C6CCC5CN(c5cc(-c7ccccc7O)nnc5N)C6)ccn4)CC3)no2)C(C)C)cc1 [compound 389, (2S,4R)-1-((2S)-2-(3-(4-(4-(4-((4-(3-(3-amino-6-(2-hydroxyphenyl)pyridazin-4-yl)-3,8-diazabicyclo[3.2.1]octan-8-yl)pyridin-2-yl)oxy)butyl)piperazin-1-yl)butoxy)isoxazol-5-yl)-3-methylbutanoyl)-4-hydroxy-N-((S)-1-(4-(4-methylthiazol-5-yl)phenyl)ethyl)pyrrolidine-2-carboxamide]",> 75,0.01 to 0.03,–,–
"COc1nc(-c2scnc2C)c(F)cc1[C@H](C)NC(=O)[C@@H]1C[C@@H](O)CN1C(=O)[C@H](c1cc(OCCN2CCC(O[C@H]3C[C@H](Oc4cc(N5C6CCC5CN(c5cc(-c7ccccc7O)nnc5N)C6)ccn4)C3)CC2)no1)C(C)C [compound 561, (2S,4R)-1-((2S)-2-(3-(2-(4-((1r,3S)-3-((4-(3-(3-amino-6-(2-hydroxyphenyl)pyridazin-4-yl)-3,8-diazabicyclo[3.2.1]octan-8-yl)pyridin-2-yl)oxy)cyclobutoxy)piperidin-1-yl)ethoxy)isoxazol-5-yl)-3-methylbutanoyl)-N-((S)-1-(5-fluoro-2-methoxy-6-(4-methylthiazol-5-yl)pyridin-3-yl)ethyl)-4-hydroxypyrrolidine-2-carboxamide]",–,–,–,DC50 [3]: > 0.03 µM
"Cc1nccn1-c1ccc([C@H](C)NC(=O)[C@@H]2C[C@@H](O)CN2C(=O)[C@@H](c2cc(OCCN3CCC(O[C@H]4C[C@H](Oc5cc(N6C7CCC6CN(c6cc(-c8ccccc8O)nnc6N)C7)ccn5)C4)CC3)no2)C(C)C)cn1 [compound 398, (2S,4R)-1-((2R)-2-(3-(2-(4-((1r,3R)-3-((4-(3-(3-amino-6-(2-hydroxyphenyl)pyridazin-4-yl)-3,8-diazabicyclo[3.2.1]octan-8-yl)pyridin-2-yl)oxy)cyclobutoxy)piperidin-1-yl)ethoxy)isoxazol-5-yl)-3-methylbutanoyl)-4-hydroxy-N-((S)-1-(6-(2-methyl-1H-imidazol-1-yl)pyridin-3-yl)ethyl)pyrrolidine-2-carboxamide]",> 75,< 0.0025,–,–
"Cc1ncsc1-c1ccc([C@H](C)NC(=O)[C@@H]2C[C@@H](O)CN2C(=O)[C@H](c2cc(OCCC3CCN(C(=O)[C@H]4C[C@@H](CN5CCC(n6cc(-c7cc(-c8ccccc8O)nnc7N)cn6)CC5)C4)CC3)no2)C(C)C)cc1 [compound 465, (2S,4R)-1-((S)-2-(3-(2-(1-((1s,3R)-3-((4-(4-(3-amino-6-(2-hydroxyphenyl)pyridazin-4-yl)-1H-pyrazol-1-yl)piperidin-1-yl)methyl)cyclobutane-1-carbonyl)piperidin-4-yl)ethoxy)isoxazol-5-yl)-3-methylbutanoyl)-4-hydroxy-N-((S)-1-(4-(4-methylthiazol-5-yl)phenyl)ethyl)pyrrolidine-2-carboxamide]",> 75,< 0.0025,–,–
"Cc1ncsc1-c1ccc([C@H](C)NC(=O)[C@@H]2C[C@@H](O)CN2C(=O)[C@@H](c2cc(N3CCC4(CC3)CN(C[C@H]3C[C@H](Oc5cc(N6C7CCC6CN(c6cc(-c8ccccc8O)nnc6N)C7)ccn5)C3)CCO4)no2)C(C)C)cc1 [compound 624, (2S,4R)-1-((2R)-2-(3-(4-(((1r,3R)-3-((4-(3-(3-amino-6-(2-hydroxyphenyl)pyridazin-4-yl)-3,8-diazabicyclo[3.2.1]octan-8-yl)pyridin-2-yl)oxy)cyclobutyl)methyl)-1-oxa-4,9-diazaspiro[5.5]undecan-9-yl)isoxazol-5-yl)-3-methylbutanoyl)-4-hydroxy-N-((S)-1-(4-(4-methylthiazol-5-yl)phenyl)ethyl)pyrrolidine-2-carboxamide]",–,–,–,"Dmax (BRM degradation, SW1573 cells, Table 2D, read-out: **Dmax (%) (% degraded)): > 75%; DC50 [3]: < 0.0025 µM"
"Cc1cc([C@@H](C(=O)N2C[C@H](O)C[C@H]2C(=O)N[C@@H](C)c2ccc(-c3scnc3C)cc2)[C@H](C)COCCOc2cc(N3C4CCC3CN(c3cc(-c5ccccc5O)nnc3N)C4)ccn2)on1 [compound 513, (2S,4R)-1-((2S,3S)-4-(2-((4-(3-(3-amino-6-(2-hydroxyphenyl)pyridazin-4-yl)-3,8-diazabicyclo[3.2.1]octan-8-yl)pyridin-2-yl)oxy)ethoxy)-3-methyl-2-(3-methylisoxazol-5-yl)butanoyl)-4-hydroxy-N-((S)-1-(4-(4-methylthiazol-5-yl)phenyl)ethyl)pyrrolidine-2-carboxamide]",–,–,–,"DC50 (BRM degradation, read-out: BRM DC50): > 0.03 µM"
"CC(C)[C@@H](C(=O)N1C[C@H](O)C[C@H]1C(=O)N[C@@H](C)c1ccc(-c2c(F)cnn2C)cc1)c1cc(OCCN2CCN(CCOc3cc(N4C5CCC4CN(c4cc(-c6ccccc6O)nnc4N)C5)ccn3)CC2)no1 [compound 410, (2S,4R)-1-((2R)-2-(3-(2-(4-(2-((4-(3-(3-amino-6-(2-hydroxyphenyl)pyridazin-4-yl)-3,8-diazabicyclo[3.2.1]octan-8-yl)pyridin-2-yl)oxy)ethyl)piperazin-1-yl)ethoxy)isoxazol-5-yl)-3-methylbutanoyl)-N-((S)-1-(4-(4-fluoro-1-methyl-1H-pyrazol-5-yl)phenyl)ethyl)-4-hydroxypyrrolidine-2-carboxamide]",> 75,–,–,"DC50 (degradation of BRM, read-out: BRM DC50): < 0.0025 µM"
"Cc1ncsc1-c1ccc([C@H](C)NC(=O)[C@@H]2C[C@@H](O)CN2C(=O)[C@@H](c2cc(N3CCC(CN4CCC(O[C@H]5C[C@H](Oc6cc(N7C8CCC7CN(c7cc(-c9ccccc9O)nnc7N)C8)ccn6)C5)CC4)CC3)no2)C(C)C)c(N)c1 [compound 708, (2S,4R)-N-((S)-1-(2-amino-4-(4-methylthiazol-5-yl)phenyl)ethyl)-1-((2R)-2-(3-(4-((4-((1r,3r)-3-((4-(3-(3-amino-6-(2-hydroxyphenyl)pyridazin-4-yl)-3,8-diazabicyclo[3.2.1]octan-8-yl)pyridin-2-yl)oxy)cyclobutoxy)piperidin-1-yl)methyl)piperidin-1-yl)isoxazol-5-yl)-3-methylbutanoyl)-4-hydroxypyrrolidine-2-carboxamide]",–,–,< 0.0025,Dmax [5]: > 75%
"Cc1ncsc1-c1ccc([C@H](C)NC(=O)[C@@H]2C[C@@H](O)CN2C(=O)[C@H](c2cc(OC3CN(CCN4CCC(O[C@H]5C[C@H](Oc6cc(N7C8CCC7CN(c7cc(-c9ccccc9O)nnc7N)C8)ccn6)C5)CC4)C3)no2)C(C)C)cc1 [compound 370, (2S,4R)-1-((2S)-2-(3-((1-(2-(4-((1r,3r)-3-((4-(3-(3-amino-6-(2-hydroxyphenyl)pyridazin-4-yl)-3,8-diazabicyclo[3.2.1]octan-8-yl)pyridin-2-yl)oxy)cyclobutoxy)piperidin-1-yl)ethyl)azetidin-3-yl)oxy)isoxazol-5-yl)-3-methylbutanoyl)-4-hydroxy-N-((S)-1-(4-(4-methylthiazol-5-yl)phenyl)ethyl)pyrrolidine-2-carboxamide]",> 75,0.01 to 0.03,–,–
"Cc1ncsc1-c1ccc([C@H](C)NC(=O)[C@@H]2C[C@@H](O)CN2C(=O)[C@@H](c2cc(OCCN3CCC(O[C@H]4C[C@H](Oc5cc(N6C7CCC6CN(c6cc(-c8ccccc8O)nnc6N)C7)ccn5)C4)CC3)no2)C(C)C)c(F)c1 [compound 240, (2S,4R)-1-((2R)-2-(3-(2-(4-((1r,3R)-3-((4-(3-(3-amino-6-(2-hydroxyphenyl)pyridazin-4-yl)-3,8-diazabicyclo[3.2.1]octan-8-yl)pyridin-2-yl)oxy)cyclobutoxy)piperidin-1-yl)ethoxy)isoxazol-5-yl)-3-methylbutanoyl)-N-((S)-1-(2-fluoro-4-(4-methylthiazol-5-yl)phenyl)ethyl)-4-hydroxypyrrolidine-2-carboxamide]",–,–,< 0.0025,"Dmax (BRM degradation, SW1573 cells, tested at the top concentration of between 0.3 and 10 μM, read-out: Dmax (%) (% degraded)): > 75%"
"Cc1ncsc1-c1ccc(CNC(=O)[C@@H]2C[C@@H](O)CN2C(=O)[C@@H](NC(=O)COCCOCCOCCOc2cc(N3C4CCC3CN(c3cc(-c5ccccc5O)nnc3N)C4)ccn2)C(C)(C)C)cc1 [compound 6, (2S,4R)-1-((2S)-14-((4-(3-(3-amino-6-(2-hydroxyphenyl)pyridazin-4-yl)-3,8-diazabicyclo[2.1]octan-8-yl)pyridin-2-yl)oxy)-2-(tert-butyl)-4-oxo-6,9,12-trioxa-3-azatetradecanoyl)-4-hydroxy-N-(4-(4-methylthiazol-5-yl)benzyl)pyrrolidine-2-carboxamide]",–,–,0.01 to 0.03,"Dmax (BRM degradation, SW1573 cells, when tested at the top concentration of between 0.3 and 10 μM, read-out: Dmax (%) (% degraded)): > 75%"
"Cc1ncsc1-c1ccc([C@H](C)NC(=O)[C@@H]2C[C@@H](O)CN2C(=O)[C@@H](c2cc(N3CCC(F)(CN4CCC(O[C@H]5C[C@H](Oc6cc(N7C8CCC7CN(c7cc(-c9ccccc9O)nnc7N)C8)ccn6)C5)CC4)CC3)no2)C(C)C)cc1 [compound 683, (2S,4R)-1-((2R)-2-(3-(4-((4-((1r,3r)-3-((4-(3-(3-amino-6-(2-hydroxyphenyl)pyridazin-4-yl)-3,8-diazabicyclo[3.2.1]octan-8-yl)pyridin-2-yl)oxy)cyclobutoxy)piperidin-1-yl)methyl)-4-fluoropiperidin-1-yl)isoxazol-5-yl)-3-methylbutanoyl)-4-hydroxy-N-((S)-1-(4-(4-methylthiazol-5-yl)phenyl)ethyl)pyrrolidine-2-carboxamide]",–,–,< 0.0025,Dmax [5]: > 75%
"CC(C)[C@H](C(=O)N1C[C@H](O)C[C@H]1C(=O)N[C@@H](C)c1ccc(C#N)cc1)c1cc(N2CCC(CN3CCC(O[C@H]4C[C@H](C#C[C@@H](C)n5cc(-c6cc(-c7ccccc7O)nnc6N)cn5)C4)CC3)CC2)no1 (single isomer, unassigned) [compound 697]",–,–,> 0.03,–

# Reference: patent publication US12539292B2, “BRM targeting compounds and associated methods of use” (Arvinas Operations, Inc., priority 2018, dated 2026)
